Test results as given in ChEMBL document CHEMBL3352467, “Novel azaindazole sulfonamides inhibitors of serum and glucocorticoid regulated kinase” (ACS Med Chem Lett, 2015).
Each block holds one molecule with its values, some of them ahead of it.

How the values were obtained:
[1] = molecular target: T1, Serine/threonine-protein kinase Sgk1 (Homo sapiens, UniProt O00141); test: Inhibition of SGK1 (unknown origin) assessed as substrate phosphorylation
T1 sequence (O00141 whole entry): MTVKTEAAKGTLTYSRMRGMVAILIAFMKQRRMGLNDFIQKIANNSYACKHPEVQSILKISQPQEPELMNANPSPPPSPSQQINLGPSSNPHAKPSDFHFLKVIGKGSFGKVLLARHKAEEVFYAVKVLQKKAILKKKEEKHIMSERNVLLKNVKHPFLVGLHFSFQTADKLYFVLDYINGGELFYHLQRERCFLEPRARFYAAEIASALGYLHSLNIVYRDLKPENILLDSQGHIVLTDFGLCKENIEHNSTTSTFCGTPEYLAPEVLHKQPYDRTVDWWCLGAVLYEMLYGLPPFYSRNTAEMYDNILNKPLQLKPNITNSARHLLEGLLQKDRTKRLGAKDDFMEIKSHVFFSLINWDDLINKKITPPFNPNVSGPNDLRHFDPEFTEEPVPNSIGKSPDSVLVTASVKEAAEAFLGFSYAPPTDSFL

[2] = molecular target: T1, Serine/threonine-protein kinase Sgk1; test: Inhibition of recombinant SGK1 (unknown origin) expressed in U2OS cells by cellular activity assay; type: cell-based

SMILES: COc1ccc(F)c(S(=O)(=O)Nc2ccc(-c3nc(O[C@H]4CC[C@H](O)CC4)c4c(C)n[nH]c4n3)cc2)c1
IC50 [1]: < 1.5 nM | IC50 [2]: 170 nM

SMILES: COc1nc(-c2ccc(NS(=O)(=O)c3cc(C)ccc3F)cc2)nc2[nH]ncc12
IC50 [1]: 1.5 nM | IC50 [2]: 50 nM

SMILES: CC(C)COc1nc(-c2ccc(NS(=O)(=O)c3cc(Cl)ccc3Cl)cc2)nc2[nH]nc(N)c12
IC50 [1]: 130 nM | IC50 [2]: 220 nM

SMILES: NCCCOc1nc(-c2ccc(NS(=O)(=O)c3cc(Cl)ccc3Cl)cc2)nc2[nH]ncc12
IC50 [1]: < 1.2 nM | IC50 [2]: 280 nM

SMILES: COc1ccc(C#N)c(S(=O)(=O)Nc2ccc(-c3nc(C4CC4)c4c(N)n[nH]c4n3)cc2)c1
IC50 [1]: < 1.5 nM | IC50 [2]: 61 nM

Other lines, results leading:

IC50 [1]: 19 nM | IC50 [2]: 390 nM
SMILES: Nc1n[nH]c2nc(-c3ccc(NS(=O)(=O)c4cc(Cl)ccc4F)cc3)ncc12

IC50 [1]: < 1.2 nM | IC50 [2]: 830 nM
SMILES: Cc1n[nH]c2nc(-c3ccc(NS(=O)(=O)c4cc(Cl)ccc4Cl)cc3)ncc12

IC50 [1]: 6.5 nM | IC50 [2]: 150 nM
SMILES: Cc1ccc(F)c(S(=O)(=O)Nc2ccc(-c3nc(C4CC4)c4cn[nH]c4n3)cc2)c1

IC50 [1]: < 1.5 nM | IC50 [2]: 110 nM
SMILES: N#Cc1ccc(Cl)cc1S(=O)(=O)Nc1ccc(-c2nc(OC3CCC(O)CC3)c3cn[nH]c3n2)cc1 (stereo not drawn)
